Laboratory results: patent US20070117743A1, “New antitumoral compounds” (priority 2003, published 2007)
Where a SMILES comes first, the peptide text is derived from it. Bridges are numbered along the chain shown (N, C = ends). [ ]: non-standard residue; d: D form. The star is where a group is joined. d(aIle) = CC[C@H](C)[C@@H](N)C(=O)O; d(aThr) = C[C@@H](O)[C@@H](N)C(=O)O; hCha = N[C@@H](CCC1CCCCC1)C(=O)O; Hexanoyl(5-Me) = CC(C)CCCC(=O)*; Orn = NCCC[C@H](N)C(=O)O; Dhb = C/C=C(\N)C(=O)O

What was measured:
Assay type in all cases: cell-based, human
[1] = tested on: LNCaP; assay: SRB colorimetric assay of cell growth and viability, LNCaP; settings: 48 hours exposure; for GI50: read-out: GI50 LN-caP; for CC50: read-out: LC50 LN-caP
[2] = tested on: IGROV-ET; assay: SRB colorimetric assay of cell growth and viability, IGROV-ET; settings: 48 hours exposure; for CC50: read-out: LC50 IGROV-ET
[3] = tested on: PANC-1; assay: SRB colorimetric assay of cell growth and viability, PANC-1; settings: 48 hours exposure; for CC50: read-out: LC50 PANC-1
[4] = tested on: IGROV-1; assay: SRB colorimetric assay of cell growth and viability, IGROV-1; settings: 48 hours exposure
[5] = tested on: SK-MEL-28; assay: SRB colorimetric assay of cell growth and viability, SK-MEL-28; settings: 48 hours exposure; for CC50: read-out: LC50 MEL-28
[6] = tested on: LoVo-Dox; assay: SRB colorimetric assay of cell growth and viability, LoVo-Dox; settings: 48 hours exposure; for CC50: read-out: LC50 LOVO-DOX
In short: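 Cells in RPMI 1640 with 10% FBS were seeded at 5×10^3 per well and left 18 hours drug-free before compounds (10 to 10^−8 μg/mL in DMSO:EtOH:PBS 0.5:0.5:99) were added for 48 hours. TCA-fixed cells were stained with SRB and read at 490 nm; triplicate wells gave GI, TGI and LC.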

[7] = tested on: HeLa; assay: SRB colorimetric assay of cell growth and viability, HeLa; settings: 48 hours exposure; for CC50: read-out: LC50 HELA
[8] = tested on: DU-145; assay: SRB colorimetric assay of cell growth and viability, DU-145; settings: 48 hours exposure
[9] = tested on: SK-BR-3; assay: SRB colorimetric assay of cell growth and viability, SK-BR-3; settings: 48 hours exposure
[10] = tested on: LoVo; assay: SRB colorimetric assay of cell growth and viability, LoVo; settings: 48 hours exposure; for CC50: read-out: LC50 LOVO
[11] = tested on: HeLa-APL; assay: SRB colorimetric assay of cell growth and viability, HeLa-APL; settings: 48 hours exposure; for CC50: read-out: LC50 HELA-APL
[12] = tested on: K-562; assay: SRB colorimetric assay of cell growth and viability, K-562; settings: 48 hours exposure; for CC50: read-out: LC50 K-562
[13] = tested on: HT-29; assay: SRB colorimetric assay of cell growth and viability, HT-29; settings: 48 hours exposure; for GI50: read-out: GI50 HT-29; for CC50: read-out: LC50 HT-29
[14] = tested on: A-549; assay: SRB colorimetric assay of cell growth and viability, A-549; settings: 48 hours exposure; for GI50: read-out: GI50 A-549; for CC50: read-out: LC50 A-549

In the case of C/C=C1\NC(=O)[C@H](Cc2ccccc2)NC(=O)[C@@H](C(C)C)NC(=O)[C@@H]([C@@H](C)CC)NC(=O)[C@H](NC(=O)[C@H](NC(=O)[C@H](CCCN)NC(=O)[C@H]2CCCN2C(=O)[C@H](NC(=O)[C@@H](NC(=O)[C@@H](NC(=O)[C@H](NC(=O)CCCC(C)C)C(C)C)[C@@H](C)O)C(C)C)C(C)C)[C@@H](C)CC)COC(=O)[C@H](C(C)C)NC1=O [Compound 3, [D-Ser^6]-KF] ({Hexanoyl(5-Me)}-[dV]TV[dV][dP][Orn][d(aIle)][dS][d(aIle)][dV]F[Dhb]V; ester 8-C), the “TGI LN-caP” value [1] is reported as 1.12E−06 Molar, the GI50 [1] is reported as 372 nM and the CC50 [1] is reported as 2940 nM. The GI50 [2] was 264 nM, the “TGI IGROV-ET” value [2] was 6.38E−07 Molar and the CC50 [2] was 2110 nM. The GI50 [3] was 3080 nM, the “TGI PANC-1” value [3] was 6.83E−06 Molar and the CC50 [3] was ≥ 6830 nM. For the same compound, the GI50 [4] was 455 nM, the LC50 (concentration causing 50% net cell killing) [4] was 3160 nM and the “TGI IGROV” value [4] was 1.27E−06 Molar. For the same compound, the GI50 [5] was 1570 nM, the “TGI MEL-28” value [5] was 2.66E−06 Molar and the CC50 [5] was 4530 nM. For the same compound, the GI50 [6] was 179 nM, the “TGI LOVO-DOX” value [6] was 3.37E−07 Molar and the CC50 [6] was 637 nM. For the same compound, the GI50 [7] was 1350 nM, the “TGI HELA” value [7] was 2.64E−06 Molar and the CC50 [7] was 5210 nM. For the same compound, the GI50 [8] was 833 nM, the LC50 (concentration causing 50% net cell kill) [8] was 3440 nM and the “TGI DU-145” value [8] was 1.69E−06 Molar. The GI50 [9] was 406 nM, the LC50 [9] was 2450 nM and the “TGI SK-BR-3” value [9] was 6.23E−07 Molar. For the same compound, the GI50 [10] was 189 nM, the “TGI LOVO” value [10] was 3.64E−07 Molar and the CC50 [10] was 758 nM. The GI50 [11] was 1370 nM, the “TGI HELA-APL” value [11] was 2.28E−06 Molar and the CC50 [11] was 3780 nM. For the same compound, the GI50 [12] was 5080 nM, the “TGI K-562” value [12] was 6.83E−06 Molar and the CC50 [12] was ≥ 6830 nM. The “TGI HT-29” value [13] was 1.22E−06 Molar, the GI50 [13] was 378 nM and the CC50 [13] was 3520 nM. The “TGI A-549” value [14] was 2.46E−06 Molar, the GI50 [14] was 1360 nM and the CC50 [14] was 4470 nM.
In the case of C/C=C1\NC(=O)[C@H](Cc2ccccc2)NC(=O)[C@@H](C(C)C)NC(=O)[C@@H](C(C)CC)NC(=O)[C@H](NC(=O)[C@H](NC(=O)[C@H](CCCN)NC(=O)[C@H]2CCCN2C(=O)[C@H](NC(=O)[C@@H](NC(=O)[C@@H](NC(=O)[C@H](NC(=O)CCC(C)CC)C(C)C)C(C)O)C(C)C)C(C)C)C(C)CC)C(C)OC(=O)[C@H](C(C)C)NC1=O (stereo partly drawn) [Compound 1, (4S)-MeHex-D-Val-ThrVal-D-Val-D-Pro-Orn-D-allo-Ile-cyclo[D-allo-Thr-D-allo-Ile-D-Val-Phe-(Z)Dhb-Val]], the “TGI LN-caP” value [1] is reported as 2.14E−06 Molar, the GI50 [1] is reported as 900 nM and the CC50 [1] is reported as 5080 nM. For the same compound, the GI50 [2] was 135 nM, the “TGI IGROV-ET” value [2] was 2.89E−07 Molar and the CC50 [2] was 619 nM. The GI50 [3] was 1820 nM, the “TGI PANC-1” value [3] was 3.66E−06 Molar and the CC50 [3] was ≥ 6770 nM. The GI50 [4] was 158 nM, the LC50 (concentration causing 50% net cell killing) [4] was 641 nM and the “TGI IGROV” value [4] was 3.19E−07 Molar. The GI50 [5] was 315 nM, the “TGI MEL-28” value [5] was 4.10E−07 Molar and the CC50 [5] was 2100 nM. For the same compound, the GI50 [6] was 63.6 nM, the “TGI LOVO-DOX” value [6] was 2.29E−07 Molar and the CC50 [6] was 1430 nM. For the same compound, the GI50 [7] was 254 nM, the “TGI HELA” value [7] was 7.38E−07 Molar and the CC50 [7] was 2560 nM. For the same compound, the GI50 [8] was 327 nM, the LC50 (concentration causing 50% net cell kill) [8] was 2540 nM and the “TGI DU-145” value [8] was 8.80E−07 Molar. The GI50 [9] was 43.4 nM, the LC50 [9] was 469 nM and the “TGI SK-BR-3” value [9] was 9.27E−08 Molar. For the same compound, the GI50 [10] was 116 nM, the “TGI LOVO” value [10] was 2.42E−07 Molar and the CC50 [10] was 502 nM. For the same compound, the GI50 [11] was 556 nM, the “TGI HELA-APL” value [11] was 1.52E−06 Molar and the CC50 [11] was 3810 nM. The GI50 [12] was 1620 nM, the “TGI K-562” value [12] was 2.96E−06 Molar and the CC50 [12] was 5400 nM. The “TGI HT-29” value [13] was 2.18E−07 Molar, the GI50 [13] was 95.4 nM and the CC50 [13] was 498 nM. The “TGI A-549” value [14] was 2.05E−06 Molar, the GI50 [14] was 907 nM and the CC50 [14] was 4630 nM.
For C/C=C1\NC(=O)[C@H](Cc2ccccc2)NC(=O)[C@@H](C(C)C)NC(=O)[C@@H]([C@@H](C)CC)NC(=O)[C@H](NC(=O)[C@H](NC(=O)[C@H](CCCN)NC(=O)[C@H]2CCCN2C(=O)[C@H](NC(=O)[C@H](CCC2CCCCC2)NC(=O)[C@@H](NC(=O)[C@H](NC(=O)CCCC(C)C)C(C)C)[C@@H](C)O)C(C)C)[C@@H](C)CC)[C@@H](C)OC(=O)[C@H](C(C)C)NC1=O [Compound 9, [hCh^11]-KF] ({Hexanoyl(5-Me)}-[dV]T[hCha][dV][dP][Orn][d(aIle)][d(aThr)][d(aIle)][dV]F[Dhb]V; ester 8-C), the “TGI LN-caP” value [1] was 2.33E−06 Molar, the GI50 [1] was 925 nM and the CC50 [1] was 5850 nM. The GI50 [2] was 278 nM, the “TGI IGROV-ET” value [2] was 8.09E−07 Molar and the CC50 [2] was 2940 nM. For the same compound, the GI50 [3] was 2250 nM, the “TGI PANC-1” value [3] was 5.27E−06 Molar and the CC50 [3] was 6470 nM. For the same compound, the GI50 [4] was 237 nM, the LC50 (concentration causing 50% net cell killing) [4] was 3310 nM and the “TGI IGROV” value [4] was 7.76E−07 Molar. The GI50 [5] was 321 nM, the “TGI MEL-28” value [5] was 9.44E−07 Molar and the CC50 [5] was 2620 nM. The GI50 [6] was 50.7 nM, the “TGI LOVO-DOX” value [6] was 1.30E−07 Molar and the CC50 [6] was 305 nM. For the same compound, the GI50 [7] was 356 nM, the “TGI HELA” value [7] was 1.12E−06 Molar and the CC50 [7] was 2920 nM. The GI50 [8] was 455 nM, the LC50 (concentration causing 50% net cell kill) [8] was 3280 nM and the “TGI DU-145” value [8] was 1.24E−06 Molar. For the same compound, the GI50 [9] was 149 nM, the LC50 [9] was 1360 nM and the “TGI SK-BR-3” value [9] was 3.66E−07 Molar. The GI50 [10] was 95.7 nM, the “TGI LOVO” value [10] was 1.93E−07 Molar and the CC50 [10] was 390 nM. The GI50 [11] was 391 nM, the “TGI HELA-APL” value [11] was 1.20E−06 Molar and the CC50 [11] was 2750 nM. For the same compound, the GI50 [12] was 1720 nM, the “TGI K-562” value [12] was 3.39E−06 Molar and the CC50 [12] was 6470 nM. The “TGI HT-29” value [13] was 1.92E−07 Molar, the GI50 [13] was 86 nM and the CC50 [13] was 429 nM. The “TGI A-549” value [14] was 4.48E−07 Molar, the GI50 [14] was 184 nM and the CC50 [14] was 1640 nM.
